The source made the active and inactive calls.
Tests used:
[1] = system: Streptococcus sp. 'group A'; assay: growth inhibition of control SK(-) GAS strain, dose response, counter-screen for streptokinase expression inhibitor project, luminescence, kanamycin, BacTiterGlo, confirmation (AID 1900); assay type: functional, organism-based
Streptococcus = assay: Group A Streptococcus viability loss, dose response, counter-screen for streptokinase expression inhibitor project, luminescence, BacTiterGlo (AID 1915); assay type: functional, organism-based;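 further: potency for reduction of bacterial viability or growth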
CAAX prenyl protease 2 = target: T1, CAAX prenyl protease 2 (Homo sapiens, UniProt Q9Y256); assay: human Rce1 protease inhibitors, dose response, biochemical, yeast membranes, quenched-peptide fluorescence, cherry-pick (AID 588849)
T1 sequence (Q9Y256 whole entry): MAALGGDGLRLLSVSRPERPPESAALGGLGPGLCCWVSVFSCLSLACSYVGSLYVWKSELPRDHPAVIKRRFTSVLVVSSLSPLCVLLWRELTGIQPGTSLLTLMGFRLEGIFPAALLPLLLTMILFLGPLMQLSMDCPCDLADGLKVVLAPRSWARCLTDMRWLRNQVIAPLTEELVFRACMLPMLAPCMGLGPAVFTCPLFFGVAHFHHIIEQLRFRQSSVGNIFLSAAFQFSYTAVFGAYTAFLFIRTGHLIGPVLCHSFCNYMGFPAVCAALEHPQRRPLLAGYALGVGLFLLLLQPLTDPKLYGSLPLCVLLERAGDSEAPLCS

[2] = insulin promoter down-regulators in MIN6 cells, imaging, high-content screening, mouse beta cells (AID 1628); assay type: functional
[3] = cytotoxicity in MIN6 insulinoma cells, dose response, cytotoxicity control, cell-based, mouse insulinoma (AID 2122); assay type: functional;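 further: confirmatory high-throughput counterscreen run to flag cytotoxic compounds; mouse MIN-6 beta cells carrying an insulin promoter eGFP reporter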
[4] = target: Peroxisome proliferator-activated receptor gamma/Nuclear receptor coactivator 2 (Homo sapiens, UniProt P37231); assay type: functional;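 further: agonist potency for raising coactivator recruitment to the receptor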
[5] = target: Peroxisome proliferator-activated receptor gamma/Nuclear receptor coactivator 1 (Homo sapiens, UniProt P37231); assay type: functional;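 further: agonist potency as compounds enhance coactivator SRC-1 recruitment to PPARgamma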
[6] = target: Peroxisome proliferator-activated receptor gamma/Nuclear receptor coactivator 3 (Homo sapiens, UniProt P37231); assay type: functional;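 further: agonist potency for raising coactivator recruitment to the receptor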
[7] = growth suppression of PTEN-null colon cells, dose response, cell-based, HCT116 PTEN knockout (AID 1047); assay type: functional;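 further: HCT116 colon tumor cells with PTEN knocked out; cells exposed to compound for 60 hours before readout; potency for loss of cell viability measured by luminescence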
[8] = growth suppression of beta-catenin-knockout colon cells, dose response, cell-based, HCT116, human colon tumor (AID 1045); assay type: functional;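 further: HCT116 colon tumor cells with beta catenin knocked out; cells exposed to compound for 60 hours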
Cytochrome P450 1A2 = target: T2, Cytochrome P450 1A2 (Homo sapiens, UniProt P05177);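 further: PubChem cytochrome P450 panel assay, CYP1A2 panel member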
T2 sequence (P05177 whole entry): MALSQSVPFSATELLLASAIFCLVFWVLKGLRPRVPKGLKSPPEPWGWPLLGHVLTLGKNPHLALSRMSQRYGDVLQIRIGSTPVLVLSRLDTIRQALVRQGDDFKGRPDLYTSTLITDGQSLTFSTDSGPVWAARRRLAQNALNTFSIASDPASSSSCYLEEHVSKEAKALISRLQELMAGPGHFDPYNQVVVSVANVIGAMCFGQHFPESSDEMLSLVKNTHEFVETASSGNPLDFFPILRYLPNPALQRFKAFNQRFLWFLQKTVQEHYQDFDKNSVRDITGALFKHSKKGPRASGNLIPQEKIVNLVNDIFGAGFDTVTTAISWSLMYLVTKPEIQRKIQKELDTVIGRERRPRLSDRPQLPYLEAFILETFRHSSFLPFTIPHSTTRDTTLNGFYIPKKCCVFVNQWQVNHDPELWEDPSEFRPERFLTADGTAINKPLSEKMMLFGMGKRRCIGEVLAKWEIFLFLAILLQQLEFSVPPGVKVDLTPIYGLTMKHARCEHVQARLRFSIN

Cytochrome P450 2C9 = Cytochrome P450 2C9 (Homo sapiens, UniProt P11712)
Cytochrome P450 2D6 = Cytochrome P450 2D6 (Homo sapiens, UniProt P10635);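 further: CYP2D6 member of a cytochrome P450 panel assay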
Cytochrome P450 3A4 = Cytochrome P450 3A4 (Homo sapiens, UniProt P08684);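 further: CYP3A4 tested as one member of a cytochrome P450 panel screen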
Sequence of Cytochrome P450 3A4 (P08684 whole entry): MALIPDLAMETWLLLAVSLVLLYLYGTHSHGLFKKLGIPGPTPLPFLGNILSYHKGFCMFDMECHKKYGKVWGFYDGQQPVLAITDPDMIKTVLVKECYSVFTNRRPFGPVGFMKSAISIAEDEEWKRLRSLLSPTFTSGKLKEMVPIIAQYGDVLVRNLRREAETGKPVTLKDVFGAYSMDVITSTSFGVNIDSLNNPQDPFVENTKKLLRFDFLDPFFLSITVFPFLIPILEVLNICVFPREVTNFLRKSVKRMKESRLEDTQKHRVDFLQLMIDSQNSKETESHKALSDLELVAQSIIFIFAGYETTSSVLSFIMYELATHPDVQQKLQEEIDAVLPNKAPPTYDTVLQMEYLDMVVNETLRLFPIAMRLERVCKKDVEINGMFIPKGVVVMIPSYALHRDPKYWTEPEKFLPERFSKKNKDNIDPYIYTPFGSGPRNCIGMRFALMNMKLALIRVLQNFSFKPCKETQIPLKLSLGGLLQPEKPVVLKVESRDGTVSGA

Sequence of Cytochrome P450 2C9 (P11712 whole entry): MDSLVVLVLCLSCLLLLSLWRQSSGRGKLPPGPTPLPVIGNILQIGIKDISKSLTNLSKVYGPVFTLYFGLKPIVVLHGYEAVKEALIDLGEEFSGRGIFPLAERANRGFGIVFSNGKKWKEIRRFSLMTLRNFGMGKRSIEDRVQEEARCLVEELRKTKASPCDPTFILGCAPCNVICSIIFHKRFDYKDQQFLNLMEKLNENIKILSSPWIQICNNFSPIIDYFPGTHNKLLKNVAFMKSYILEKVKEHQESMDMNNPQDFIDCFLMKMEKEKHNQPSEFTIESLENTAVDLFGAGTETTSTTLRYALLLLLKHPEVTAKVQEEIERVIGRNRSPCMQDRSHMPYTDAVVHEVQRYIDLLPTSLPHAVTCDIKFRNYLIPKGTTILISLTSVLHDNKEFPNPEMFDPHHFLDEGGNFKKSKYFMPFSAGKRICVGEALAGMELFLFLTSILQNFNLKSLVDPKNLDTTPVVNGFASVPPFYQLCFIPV
Sequence of Cytochrome P450 2D6 (P10635 whole entry): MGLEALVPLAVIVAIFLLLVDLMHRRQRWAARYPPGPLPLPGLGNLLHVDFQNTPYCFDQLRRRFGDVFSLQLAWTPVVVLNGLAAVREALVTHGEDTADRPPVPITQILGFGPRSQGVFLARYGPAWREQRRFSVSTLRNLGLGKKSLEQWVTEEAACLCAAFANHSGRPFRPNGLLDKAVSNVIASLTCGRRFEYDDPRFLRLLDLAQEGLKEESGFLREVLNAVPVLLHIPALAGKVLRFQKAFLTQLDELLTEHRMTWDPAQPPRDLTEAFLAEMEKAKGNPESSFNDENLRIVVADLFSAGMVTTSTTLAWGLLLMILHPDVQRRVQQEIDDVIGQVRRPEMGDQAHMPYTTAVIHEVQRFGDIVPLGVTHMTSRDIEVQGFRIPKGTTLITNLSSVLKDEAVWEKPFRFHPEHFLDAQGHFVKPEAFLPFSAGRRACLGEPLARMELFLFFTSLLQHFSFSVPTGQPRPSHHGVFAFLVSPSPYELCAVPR
Sequence of Peroxisome proliferator-activated receptor gamma/Nuclear receptor coactivator 2 (P37231 whole entry): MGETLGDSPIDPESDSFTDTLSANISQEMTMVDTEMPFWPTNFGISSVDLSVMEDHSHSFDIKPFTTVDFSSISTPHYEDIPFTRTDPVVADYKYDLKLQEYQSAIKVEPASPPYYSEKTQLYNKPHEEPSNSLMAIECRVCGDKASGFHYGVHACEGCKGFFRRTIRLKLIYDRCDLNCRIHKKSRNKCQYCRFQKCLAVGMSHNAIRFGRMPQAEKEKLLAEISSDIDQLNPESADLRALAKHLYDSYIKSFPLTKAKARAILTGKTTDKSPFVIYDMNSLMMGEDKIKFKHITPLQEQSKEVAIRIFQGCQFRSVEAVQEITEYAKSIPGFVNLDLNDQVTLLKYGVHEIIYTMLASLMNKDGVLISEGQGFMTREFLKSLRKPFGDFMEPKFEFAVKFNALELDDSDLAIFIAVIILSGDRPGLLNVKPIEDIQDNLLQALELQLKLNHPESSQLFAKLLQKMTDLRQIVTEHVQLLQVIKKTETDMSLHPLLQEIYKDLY
Sequence of Peroxisome proliferator-activated receptor gamma/Nuclear receptor coactivator 2 (Q15596 whole entry, further chain): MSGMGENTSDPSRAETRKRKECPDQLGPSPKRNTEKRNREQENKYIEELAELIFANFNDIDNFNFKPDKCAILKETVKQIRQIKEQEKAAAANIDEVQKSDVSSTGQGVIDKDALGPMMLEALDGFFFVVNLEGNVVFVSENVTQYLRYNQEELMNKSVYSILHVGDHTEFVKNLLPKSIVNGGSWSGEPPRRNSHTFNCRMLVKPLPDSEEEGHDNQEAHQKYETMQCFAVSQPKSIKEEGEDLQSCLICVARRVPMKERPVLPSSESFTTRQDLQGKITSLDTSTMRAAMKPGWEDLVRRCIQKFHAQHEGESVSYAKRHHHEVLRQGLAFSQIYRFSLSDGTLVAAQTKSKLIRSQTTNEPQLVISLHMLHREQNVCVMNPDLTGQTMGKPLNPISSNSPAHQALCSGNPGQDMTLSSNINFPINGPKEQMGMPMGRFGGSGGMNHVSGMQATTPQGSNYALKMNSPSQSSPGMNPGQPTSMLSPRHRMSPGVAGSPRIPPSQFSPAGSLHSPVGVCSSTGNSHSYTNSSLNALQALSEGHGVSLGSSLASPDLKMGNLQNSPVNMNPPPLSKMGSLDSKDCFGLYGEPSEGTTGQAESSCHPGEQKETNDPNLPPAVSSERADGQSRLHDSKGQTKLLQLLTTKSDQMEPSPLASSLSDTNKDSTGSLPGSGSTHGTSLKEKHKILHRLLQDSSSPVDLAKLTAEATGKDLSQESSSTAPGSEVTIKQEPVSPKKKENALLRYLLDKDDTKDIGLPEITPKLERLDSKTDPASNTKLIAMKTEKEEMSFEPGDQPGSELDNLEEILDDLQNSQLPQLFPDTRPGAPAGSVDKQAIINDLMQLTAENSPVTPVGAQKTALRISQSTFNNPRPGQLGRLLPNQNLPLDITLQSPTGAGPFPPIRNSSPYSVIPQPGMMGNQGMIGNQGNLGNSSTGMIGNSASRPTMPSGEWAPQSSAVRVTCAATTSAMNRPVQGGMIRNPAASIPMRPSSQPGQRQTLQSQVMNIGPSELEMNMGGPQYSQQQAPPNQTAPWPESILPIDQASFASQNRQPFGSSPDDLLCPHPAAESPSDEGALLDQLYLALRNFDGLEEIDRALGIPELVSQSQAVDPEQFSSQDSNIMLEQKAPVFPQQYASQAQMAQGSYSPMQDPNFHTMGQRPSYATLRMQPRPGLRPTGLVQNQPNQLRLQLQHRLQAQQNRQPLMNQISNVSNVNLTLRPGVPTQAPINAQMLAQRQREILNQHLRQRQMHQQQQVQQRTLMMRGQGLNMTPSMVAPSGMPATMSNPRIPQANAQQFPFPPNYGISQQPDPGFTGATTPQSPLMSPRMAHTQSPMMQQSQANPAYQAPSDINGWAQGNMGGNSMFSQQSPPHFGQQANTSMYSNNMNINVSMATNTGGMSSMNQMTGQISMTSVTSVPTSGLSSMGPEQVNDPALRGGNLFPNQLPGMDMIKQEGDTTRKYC

For `C[C@H]1COc2c(N3CCN(C)CC3)c(F)cc3c(=O)c(C(=O)O)cn1c23` [LEVOFLOXACIN], the EC50 [1] was 2.1 µM (active), the EC50 (Streptococcus) was 0.911 µM (active) and the AC50 (CAAX prenyl protease 2) was 41 µM (active).

With `Cc1ccccc1/N=C/C=C1\N(C)c2ccccc2C1(C)C` the IC50 [2] was 2.44 µM (active) and the IC50 [3] was 5.61 µM (active).

In the case of `CCOc1ccc(-c2nn(-c3ccccc3)cc2/C=C2\SC(N)=NC2=O)cc1C`, the EC50 [4] is reported as > 79.4 µM (not active), the EC50 [5] is reported as > 79.4 µM (not active) and the EC50 [6] is reported as > 79.4 µM (not active). For the same molecule, the EC50 [7] was 8.6 µM (active), the EC50 [8] was 8.58 µM (active) and the AC50 (Cytochrome P450 1A2) was 15.8 µM (inconclusive). For the same molecule, the AC50 (Cytochrome P450 2C9) was “inconclusive”.

With `COc1ccc(C2=NOC(C(=O)N3CCCc4ccccc43)C2)cc1` (configuration not stated) the AC50 (Cytochrome P450 2D6) was 20 µM (inconclusive), the AC50 (Cytochrome P450 3A4) was 12.6 µM (inconclusive) and the AC50 (Cytochrome P450 2C9) was “inconclusive”.

For `COc1ccc2[nH]c3c(N4CCN(Cc5ccc6c(c5)OCO6)CC4)ncnc3c2c1`, the IC50 [2] was 2.79 µM (active) and the IC50 [3] was 2.58 µM (active).

From ChEMBL document CHEMBL1201862, “PubChem BioAssay data set” (2004)
